From PubChem BioAssay (NCI) come the findings set out here.

Test systems include HCT-15 colon; SN12C renal; MDA-MB-231 breast; SK-OV-3 ovarian; OVCAR-5 ovarian; MDA-MB-435; HOP-92 NSCLC; A549 NSCLC; HL-60(TB) leukemia; 786-0 renal.
Holding throughout (test): DTP human tumour cell line panel, 48 h

Where “and” joins values, the source holds several entries; their conditions need not be identical. Identical values can stand only once.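 A five-concentration, 48-hour dose response in 96-well plates underlies each endpoint, interpolated linearly between surrounding concentrations. At the GI50, growth is halved. The concentration for full growth arrest is given as TGI.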

One may read the GI50 as the concentration at which growth is held to half of that of the control. A word on the TGI: it is the concentration at which net growth stops. Regarding `CCC1C[N+]2=C(c3cc(OC)c(OC)cc3CC2)c2c1cc1n2CCc2cc(OC)c(OC)cc2-1` (stereo unspecified), the GI50 with HCT-15 colon is 14 µM; in the assay on SN12C renal, 1.93 µM; in the assay with MDA-MB-231 breast it was 2.27 µM; in the assay with SK-OV-3 ovarian, 5.01 µM; with OVCAR-5 ovarian, 12.1 µM; with MDA-MB-435, 1.62 µM. For the same molecule, the GI50 is 1.78 µM with HOP-92 NSCLC, 11.8 µM in the assay with A549 NSCLC, 2.47 µM in the assay with HL-60(TB) leukemia and 11 µM with 786-0 renal. For the same molecule, the TGI in the assay with HCT-15 colon was 34.7 µM; in the assay on SN12C renal, 11.8 µM; with MDA-MB-231 breast, 8.44 µM; with SK-OV-3 ovarian it was 37.5 µM; in the assay on OVCAR-5 ovarian it was above 100 µM; in the assay on MDA-MB-435 it was 6.09 µM. Further, the TGI with HOP-92 NSCLC is 6.08 µM; in the assay with A549 NSCLC it was above 100 µM; in the assay with HL-60(TB) leukemia it was 10.1 µM; with 786-0 renal it was 30.1 µM.

In the case of `Nc1ccccc1-n1c2c(c3ccccc3c1=O)C(=O)c1ccccc1-2`, the TGI in the assay with HCT-15 colon is above 100 µM; in the assay with SN12C renal it was above 100 µM; with MDA-MB-231 breast, above 100 µM; in the assay on SK-OV-3 ovarian, 21.5 µM; in the assay with OVCAR-5 ovarian, above 100 µM; in the assay with MDA-MB-435, above 100 µM. The TGI with HOP-92 NSCLC is 53.6 µM; with A549 NSCLC, above 100 µM; in the assay with HL-60(TB) leukemia it was 41.6 µM; in the assay with 786-0 renal, 55.6 µM.

As to `C=C(C)[C@@H]1CC[C@]2(COC(=O)c3ccccc3C(=O)O)CC[C@]3(C)[C@H](CC[C@@H]4[C@@]5(C)CC[C@H](OC(=O)c6ccccc6C(=O)O)C(C)(C)[C@@H]5CC[C@]43C)[C@@H]12`, the GI50 in the assay on HCT-15 colon is 31.3 µM; with SN12C renal, 60.8 µM; in the assay on MDA-MB-231 breast, 25 µM; with SK-OV-3 ovarian, 35.8 µM; with OVCAR-5 ovarian it was above 100 µM; in the assay with MDA-MB-435, 34.6 µM. For the same molecule, the GI50 in the assay with HOP-92 NSCLC was 19.6 µM; with A549 NSCLC, 29.8 µM; in the assay with HL-60(TB) leukemia, above 100 µM; in the assay with 786-0 renal it was 31.6 µM. The TGI in the assay on HCT-15 colon is above 100 µM; in the assay on SN12C renal it was above 100 µM; in the assay with MDA-MB-231 breast it was 69.3 µM; with SK-OV-3 ovarian it was above 100 µM; with OVCAR-5 ovarian, above 100 µM; in the assay on MDA-MB-435 it was above 100 µM. Also, the TGI with HOP-92 NSCLC is 64.5 µM; in the assay with A549 NSCLC it was above 100 µM; in the assay with HL-60(TB) leukemia, above 100 µM; with 786-0 renal it was above 100 µM.

For `O=C(Oc1c(Cl)c(Cl)c(Cl)c(Cl)c1Cl)C1CCCN1C(=O)OCc1ccccc1` (stereo unspecified), the GI50 in the assay on HCT-15 colon was 3.08 µM; in the assay with SN12C renal, 3.24 µM; in the assay on MDA-MB-231 breast, 2.42 µM; with SK-OV-3 ovarian, 3.15 µM; with OVCAR-5 ovarian, 4.28 µM; with MDA-MB-435, 4.11 µM. In addition, the GI50 is 1.99 µM in the assay with HOP-92 NSCLC, 3.97 µM in the assay on A549 NSCLC, 2.42 µM in the assay with HL-60(TB) leukemia and 3.94 µM with 786-0 renal. The TGI with HCT-15 colon was 11.7 µM; in the assay on SN12C renal, 12.5 µM; in the assay with MDA-MB-231 breast it was 6.6 µM; in the assay with SK-OV-3 ovarian it was 9.07 µM; in the assay with OVCAR-5 ovarian, 17.1 µM; in the assay with MDA-MB-435 it was 16.6 µM. Also, the TGI came to 6.1 µM in the assay with HOP-92 NSCLC, 18.2 µM with A549 NSCLC, 6.09 µM in the assay on HL-60(TB) leukemia and 14.2 µM in the assay on 786-0 renal.

As for `COc1ccc2c(ccc3oc([N+](=O)[O-])cc32)c1`, the GI50 in the assay on HCT-15 colon is 0.221 µM; in the assay with SN12C renal, 0.274 µM; in the assay with MDA-MB-231 breast, 0.167 µM; in the assay on SK-OV-3 ovarian it was 0.231 µM; with OVCAR-5 ovarian it was 0.364 µM; in the assay on MDA-MB-435 it was 0.047 µM. The GI50 is 0.129 µM with HOP-92 NSCLC, 0.274 µM with A549 NSCLC, 0.0514 µM in the assay on HL-60(TB) leukemia and 0.218 µM in the assay with 786-0 renal. Moreover, the TGI was 1.53 µM with HCT-15 colon; 7.03 µM with SN12C renal; 0.596 µM in the assay on MDA-MB-231 breast; 1.84 µM in the assay on SK-OV-3 ovarian; 4.74 µM in the assay on OVCAR-5 ovarian; 0.186 µM in the assay on MDA-MB-435. Moreover, the TGI with HOP-92 NSCLC is 0.407 µM; with A549 NSCLC, 1.04 µM; in the assay on HL-60(TB) leukemia it was 0.487 µM; in the assay with 786-0 renal, 0.667 µM.

On to `C=CC(=O)N1CCC(CNc2ncnc(N)c2-c2ccc(Oc3ccccc3)cc2)CC1`, for which the GI50 in the assay on HCT-15 colon is 26.6 µM; with SN12C renal it was 25.2 µM; in the assay with MDA-MB-231 breast, 25.5 µM; in the assay on SK-OV-3 ovarian it was 18 µM; in the assay on OVCAR-5 ovarian, 46.7 µM; in the assay with MDA-MB-435, 27.9 µM. The GI50 in the assay with HOP-92 NSCLC was 18.8 µM; with A549 NSCLC, 34.3 µM; in the assay on HL-60(TB) leukemia, 19.9 µM; in the assay with 786-0 renal it was 17.7 µM. For the same molecule, the TGI was above 100 µM in the assay on HCT-15 colon; above 100 µM with SN12C renal; 89 µM with MDA-MB-231 breast; 70 µM with SK-OV-3 ovarian; above 100 µM in the assay with OVCAR-5 ovarian; 97.5 µM with MDA-MB-435. Moreover, the TGI with HOP-92 NSCLC was 65.1 µM; with A549 NSCLC it was above 100 µM; with HL-60(TB) leukemia, 46.4 µM; in the assay with 786-0 renal, 92.9 µM.

With `CSc1ccc(NC(=O)CCl)cc1`, the TGI in the assay with HCT-15 colon, in the assay with SN12C renal, with MDA-MB-231 breast, with SK-OV-3 ovarian, in the assay on OVCAR-5 ovarian and in the assay with MDA-MB-435 was above 10 µM in each case. The TGI in the assay on HOP-92 NSCLC was 8.88 µM; with A549 NSCLC it was 5.79 µM; in the assay with HL-60(TB) leukemia, above 10 µM; with 786-0 renal, above 10 µM.

In the case of `O=C(Cc1ccc(-c2ccc(OCCN3CCOCC3)cc2)cn1)NCc1ccccc1`, the GI50 was 0.0294 µM and 0.0387 µM in the assay with HCT-15 colon; 0.0845 µM and 0.0611 µM in the assay with SN12C renal; 0.0577 µM and 0.0833 µM in the assay with MDA-MB-231 breast; 0.0303 µM and 0.0549 µM with SK-OV-3 ovarian; 0.0605 µM and 0.119 µM in the assay on OVCAR-5 ovarian; 0.0162 µM in the assay on MDA-MB-435. In addition, the GI50 is 0.0543 µM and 0.353 µM in the assay with HOP-92 NSCLC; 0.0405 µM and 0.0537 µM in the assay on A549 NSCLC; 0.0294 µM and 0.0309 µM in the assay on HL-60(TB) leukemia; 0.0675 µM and 0.0857 µM with 786-0 renal. Also, the TGI is above 100 µM in the assay with HCT-15 colon; above 100 µM in the assay with SN12C renal; above 100 µM with MDA-MB-231 breast; 7.01 µM and > 10 µM in the assay on SK-OV-3 ovarian; above 100 µM with OVCAR-5 ovarian; 0.0392 µM in the assay with MDA-MB-435. The TGI is 8.59 µM and > 7.16 µM with HOP-92 NSCLC; above 100 µM in the assay on A549 NSCLC; above 100 µM in the assay on 786-0 renal.

Regarding `COc1cc(-c2cn(-c3ccc(F)cc3)c(=O)[nH]2)cc(OC)c1OC`, the GI50 in the assay on HCT-15 colon is above 100 µM; in the assay with SN12C renal it was 9.93 µM; in the assay on MDA-MB-231 breast, above 100 µM; with SK-OV-3 ovarian, above 100 µM; in the assay with OVCAR-5 ovarian, above 100 µM; in the assay on MDA-MB-435, above 100 µM. Further, the GI50 with HOP-92 NSCLC was 79.4 µM; with A549 NSCLC, above 100 µM; with HL-60(TB) leukemia, above 100 µM; with 786-0 renal, above 100 µM. Further, the TGI in the assay with HCT-15 colon, in the assay with SN12C renal, in the assay with MDA-MB-231 breast, with SK-OV-3 ovarian, with OVCAR-5 ovarian and in the assay on MDA-MB-435 was above 100 µM in each case. For the same molecule, the TGI in the assay on HOP-92 NSCLC, with A549 NSCLC, in the assay on HL-60(TB) leukemia and in the assay on 786-0 renal was above 100 µM in each case.

As for `N#CC1=C(N)Oc2c(ccc3cccnc23)C1c1ccccc1` (stereo unspecified), the TGI was above 100 µM in the assay on HCT-15 colon; above 100 µM in the assay on SN12C renal; above 100 µM in the assay on MDA-MB-231 breast; above 100 µM in the assay with SK-OV-3 ovarian; above 100 µM in the assay on OVCAR-5 ovarian; 0.661 µM in the assay with MDA-MB-435. For the same molecule, the TGI in the assay on HOP-92 NSCLC is above 83.4 µM; in the assay on A549 NSCLC, above 100 µM; in the assay on HL-60(TB) leukemia, 2.07 µM; in the assay with 786-0 renal it was above 100 µM. Also, the GI50 is 4.88 µM in the assay on MDA-MB-231 breast and 0.193 µM in the assay with MDA-MB-435.

Turning to `CCN(CC)CCC(CNc1c(C)cnc2cc(Cl)ccc12)c1ccc(Cl)c(Cl)c1` (stereo unspecified), the GI50 in the assay on HCT-15 colon was 2.23 µM; with SN12C renal, 7.67 µM; in the assay with MDA-MB-231 breast, 2.43 µM; with SK-OV-3 ovarian, 14.4 µM; with OVCAR-5 ovarian it was 4.62 µM; in the assay with MDA-MB-435 it was 1.77 µM. For the same molecule, the GI50 in the assay with HOP-92 NSCLC was 1.96 µM; with A549 NSCLC, 8.21 µM; with HL-60(TB) leukemia, 2.13 µM; in the assay on 786-0 renal it was 2.37 µM. In addition, the total growth inhibition concentration (TGI) stood at 10.8 µM with HCT-15 colon; 23.7 µM in the assay on SN12C renal; 7.06 µM with MDA-MB-231 breast; 28 µM in the assay on SK-OV-3 ovarian; 18.9 µM in the assay on OVCAR-5 ovarian; 3.4 µM in the assay with MDA-MB-435. Further, the TGI stood at 8.03 µM in the assay on HOP-92 NSCLC, 22 µM in the assay on A549 NSCLC, 5.12 µM in the assay on HL-60(TB) leukemia and 5.74 µM in the assay with 786-0 renal.

In the case of `COc1ccc2cn3c4ccc(O)cc4[nH]c(=O)c3c2c1`, the GI50 is 0.0438 µM in the assay with HCT-15 colon; 0.267 µM with SN12C renal; 0.434 µM in the assay with MDA-MB-231 breast; 0.0889 µM with SK-OV-3 ovarian; 2.72 µM in the assay on OVCAR-5 ovarian; 0.0248 µM with MDA-MB-435. Further, the GI50 is 11.6 µM in the assay on HOP-92 NSCLC, 0.231 µM with A549 NSCLC, 0.111 µM in the assay on HL-60(TB) leukemia and 0.278 µM with 786-0 renal. Moreover, the TGI came out at 13.2 µM in the assay on HCT-15 colon; 16.2 µM in the assay with SN12C renal; 14.8 µM with MDA-MB-231 breast; 13.9 µM in the assay with SK-OV-3 ovarian; 21.5 µM in the assay with OVCAR-5 ovarian; 0.0692 µM in the assay with MDA-MB-435. The TGI in the assay with HOP-92 NSCLC amounted to 25.8 µM; in the assay on A549 NSCLC it was 18.1 µM; in the assay with HL-60(TB) leukemia, 13 µM; in the assay with 786-0 renal, 13.4 µM.
